Test results from ChEMBL document CHEMBL5579830, “Design and synthesis of 6-C-alkyl-DMDP type nanomolar inhibitors of β-galactosidase and β-glucosidase based on broussonetine S and related derivatives” (Eur J Med Chem, 2024).

Key:
[1] = molecular target: T1, Tissue alpha-L-fucosidase (Bos taurus) (UniProt Q2KIM0); assay: Inhibition of bovine kidney alpha-L-fucosidase using p-nitrophenyl glycoside as substrate assessed as release of p-nitrophenol at 1000 uM by spectrometric analysis relative to control
T1 sequence (whole entry): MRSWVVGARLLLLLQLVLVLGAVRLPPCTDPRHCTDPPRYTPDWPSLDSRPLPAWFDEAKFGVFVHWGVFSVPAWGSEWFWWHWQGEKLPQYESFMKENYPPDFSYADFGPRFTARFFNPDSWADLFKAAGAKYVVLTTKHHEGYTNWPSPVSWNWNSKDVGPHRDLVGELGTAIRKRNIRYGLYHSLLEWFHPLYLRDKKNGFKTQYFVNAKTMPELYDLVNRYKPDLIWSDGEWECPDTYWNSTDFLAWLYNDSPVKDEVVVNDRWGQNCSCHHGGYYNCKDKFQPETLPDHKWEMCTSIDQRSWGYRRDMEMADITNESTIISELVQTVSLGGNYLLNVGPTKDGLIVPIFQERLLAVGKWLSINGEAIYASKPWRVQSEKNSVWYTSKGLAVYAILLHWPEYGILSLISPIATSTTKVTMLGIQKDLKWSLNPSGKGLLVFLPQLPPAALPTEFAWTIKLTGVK

[2] = molecular target: Alpha-galactosidase (Coffea arabica) (UniProt Q42656); assay: Inhibition of coffee bean alpha-galactosidase using p-nitrophenyl glycoside as substrate assessed as release of p-nitrophenol at 1000 uM by spectrometric analysis relative to control
[3] = Inhibition of almond beta-glucosidase using p-nitrophenyl glycoside as substrate assessed as release of p-nitrophenol by spectrometric analysis; parameters: species or system Prunus dulcis
[4] = Inhibition of Escherichia coli beta-glucuronidase using p-nitrophenyl glycoside as substrate assessed as release of p-nitrophenol by spectrometric analysis
[5] = Inhibition of bovine liver beta-galactosidase using p-nitrophenyl glycoside as substrate assessed as release of p-nitrophenol by spectrometric analysis; parameters: species or system Bos taurus
[6] = molecular target: T2, Alpha-mannosidase (Canavalia ensiformis) (UniProt C0HJB3); assay: Inhibition of jack bean alpha-mannosidase using p-nitrophenyl glycoside as substrate assessed as release of p-nitrophenol at 1000 uM by spectrometric analysis relative to control
T2 sequence (whole entry): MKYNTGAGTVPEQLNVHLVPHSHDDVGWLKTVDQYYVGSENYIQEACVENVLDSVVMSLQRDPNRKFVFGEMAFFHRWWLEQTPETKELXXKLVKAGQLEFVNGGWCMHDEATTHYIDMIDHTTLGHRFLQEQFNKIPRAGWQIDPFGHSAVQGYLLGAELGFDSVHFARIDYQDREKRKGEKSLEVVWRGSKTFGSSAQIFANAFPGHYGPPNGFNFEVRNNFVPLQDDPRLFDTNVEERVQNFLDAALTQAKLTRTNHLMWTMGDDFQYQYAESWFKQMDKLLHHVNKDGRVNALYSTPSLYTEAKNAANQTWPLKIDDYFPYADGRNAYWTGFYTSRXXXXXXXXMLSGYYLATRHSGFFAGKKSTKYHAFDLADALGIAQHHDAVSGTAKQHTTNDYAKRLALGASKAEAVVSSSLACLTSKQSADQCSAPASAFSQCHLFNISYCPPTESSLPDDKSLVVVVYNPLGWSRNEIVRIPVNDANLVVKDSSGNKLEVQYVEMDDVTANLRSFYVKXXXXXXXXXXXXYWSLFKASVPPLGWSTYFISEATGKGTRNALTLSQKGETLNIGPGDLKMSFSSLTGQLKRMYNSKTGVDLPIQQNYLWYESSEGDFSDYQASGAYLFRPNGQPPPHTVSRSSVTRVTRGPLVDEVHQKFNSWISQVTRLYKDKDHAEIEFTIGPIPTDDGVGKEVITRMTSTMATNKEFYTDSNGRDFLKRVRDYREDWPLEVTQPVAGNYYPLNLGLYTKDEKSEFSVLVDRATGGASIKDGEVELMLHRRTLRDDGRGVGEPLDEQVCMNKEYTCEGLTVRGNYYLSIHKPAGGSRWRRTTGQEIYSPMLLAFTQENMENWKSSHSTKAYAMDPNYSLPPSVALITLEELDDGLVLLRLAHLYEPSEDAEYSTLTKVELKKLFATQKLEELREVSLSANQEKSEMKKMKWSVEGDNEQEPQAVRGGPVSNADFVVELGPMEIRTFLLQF

[7] = Inhibition of Aspergillus niger amyloglucosidase using p-nitrophenyl glycoside as substrate assessed as release of p-nitrophenol by spectrometric analysis
[8] = Inhibition of snail beta-mannosidase using p-nitrophenyl glycoside as substrate assessed as release of p-nitrophenol by spectrometric analysis; parameters: species or system Helix pomatia
[9] = Inhibition of rice alpha-glucosidase using p-nitrophenyl glycoside as substrate assessed as release of p-nitrophenol by spectrometric analysis; parameters: species or system Oryza sativa
Alpha-glucosidase = Alpha-glucosidase (Saccharomyces cerevisiae S288c, UniProt P53341+P38158+P07265); assay: Inhibition of yeast alpha-glucosidase using p-nitrophenyl glycoside as substrate assessed as release of p-nitrophenol by spectrometric analysis; type: protein assay
[10] = molecular target: Lysosomal alpha-glucosidase (Homo sapiens, UniProt P10253); assay: Inhibition of human lysosome alpha-glucosidase using p-nitrophenyl glycoside as substrate assessed as release of p-nitrophenol by spectrometric analysis
MKN-45 = assay: cells; conditions: Homo sapiens, MKN-45, 48 h
[11] = molecular target: T3, Lysosomal acid glucosylceramidase (Homo sapiens, UniProt P04062); assay: Inhibition of human lysosome beta-glucosidase using p-nitrophenyl glycoside as substrate assessed as release of p-nitrophenol by spectrometric analysis
T3 sequence (P04062 whole entry): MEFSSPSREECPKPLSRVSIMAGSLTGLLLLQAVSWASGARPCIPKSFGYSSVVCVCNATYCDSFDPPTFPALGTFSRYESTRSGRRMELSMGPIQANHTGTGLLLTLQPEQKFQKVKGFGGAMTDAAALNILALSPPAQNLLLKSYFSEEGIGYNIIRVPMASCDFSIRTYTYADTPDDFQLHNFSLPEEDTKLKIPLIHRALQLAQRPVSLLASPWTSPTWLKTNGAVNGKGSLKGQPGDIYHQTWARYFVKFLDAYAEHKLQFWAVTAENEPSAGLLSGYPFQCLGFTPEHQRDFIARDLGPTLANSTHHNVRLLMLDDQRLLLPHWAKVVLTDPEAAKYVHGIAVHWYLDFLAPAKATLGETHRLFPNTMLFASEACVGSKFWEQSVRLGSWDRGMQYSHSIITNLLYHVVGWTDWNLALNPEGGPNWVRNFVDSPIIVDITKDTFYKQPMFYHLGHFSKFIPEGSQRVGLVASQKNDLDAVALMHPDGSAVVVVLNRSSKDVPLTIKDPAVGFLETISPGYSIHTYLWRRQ

[12] = molecular target: T4, Glucosylceramidase (Bos taurus) (UniProt Q2KHZ8); assay: Inhibition of bovine liver beta-glucosidase using p-nitrophenyl glycoside as substrate assessed as release of p-nitrophenol at 1000 uM by spectrometric analysis relative to control
T4 sequence (whole entry): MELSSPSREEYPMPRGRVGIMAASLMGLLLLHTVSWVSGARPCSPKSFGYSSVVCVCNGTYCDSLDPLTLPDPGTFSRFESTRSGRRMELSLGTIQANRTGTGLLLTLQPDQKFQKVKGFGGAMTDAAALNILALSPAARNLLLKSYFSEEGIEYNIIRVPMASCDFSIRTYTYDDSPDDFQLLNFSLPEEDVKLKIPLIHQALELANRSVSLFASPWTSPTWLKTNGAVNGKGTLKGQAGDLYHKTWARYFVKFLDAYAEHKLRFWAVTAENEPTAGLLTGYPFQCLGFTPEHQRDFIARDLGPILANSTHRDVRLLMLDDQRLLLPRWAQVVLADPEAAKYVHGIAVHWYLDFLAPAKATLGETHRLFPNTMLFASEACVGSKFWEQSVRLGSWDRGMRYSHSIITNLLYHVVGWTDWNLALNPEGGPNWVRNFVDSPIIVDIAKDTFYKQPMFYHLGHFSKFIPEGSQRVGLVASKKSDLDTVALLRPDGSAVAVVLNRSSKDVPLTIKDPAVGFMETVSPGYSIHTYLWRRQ

Chain of Alpha-galactosidase (Coffea arabica) (Q42656 16-378 limits assumed): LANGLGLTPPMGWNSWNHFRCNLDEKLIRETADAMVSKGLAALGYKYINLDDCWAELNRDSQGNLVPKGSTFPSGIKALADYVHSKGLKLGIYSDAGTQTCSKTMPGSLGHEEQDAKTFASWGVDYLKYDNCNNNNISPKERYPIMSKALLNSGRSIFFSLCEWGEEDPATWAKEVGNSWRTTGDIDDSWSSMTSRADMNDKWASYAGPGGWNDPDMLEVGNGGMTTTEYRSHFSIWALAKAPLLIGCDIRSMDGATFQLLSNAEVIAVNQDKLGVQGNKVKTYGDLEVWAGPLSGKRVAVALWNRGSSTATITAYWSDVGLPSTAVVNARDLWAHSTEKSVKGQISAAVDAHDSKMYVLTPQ

Row | Compound | inhibition [1] [%] | inhibition [2] [%] | IC50 [3] [µM] | IC50 [4] [µM] | IC50 [5] [µM] | inhibition [6] [%] | other results
1 | OCCC[C@H](O)CCCCCCCC[C@H](O)[C@H]1N[C@H](CO)[C@@H](O)[C@@H]1O | 6 | 4.7 | 2.8 | 2.9 | 0.062 | 0 | –
2 | OCCC[C@H](O)CCCCCCCC[C@@H](O)[C@H]1N[C@H](CO)[C@@H](O)[C@@H]1O | 0.86 | 4.5 | 0.69 | 2.7 | 0.007 | 0 | IC50 [7]: 73 µM; IC50 [8]: 71 µM
3 | CCCCCCC[C@@H](O)[C@@H]1N[C@@H](CO)[C@H](O)[C@H]1O | – | 0 | – | – | 29 | 0 | –
4 | OCCC[C@H](O)CCCCCCCC[C@H](O)[C@@H]1N[C@@H](CO)[C@H](O)[C@H]1O | 5.9 | 4.9 | – | 29 | 5.1 | 0 | IC50 [9]: 7.3 µM
5 | OCCC[C@@H](O)CCCCCCCC[C@@H](O)[C@H]1N[C@H](CO)[C@@H](O)[C@@H]1O | 6.5 | 4.4 | 0.53 | 3.3 | 0.005 | 0 | IC50 [7]: 62 µM; IC50 [8]: 62 µM
6 | Cl.OCCC[C@@H](O)CCCCCCCC[C@@H](O)[C@@H]1N[C@@H](CO)[C@H](O)[C@H]1O | 8.6 | 4.1 | – | 46 | 2.3 | 0 | IC50 (Alpha-glucosidase): 49 µM
7 | CCCCCCC[C@H](O)[C@@H]1N[C@@H](CO)[C@H](O)[C@H]1O | – | 0 | – | – | 41 | 2.6 | IC50 [10]: 2.1 µM; IC50 [9]: 6 µM
8 | OCCC[C@@H](O)CCCCCCCC[C@H](O)[C@@H]1N[C@@H](CO)[C@H](O)[C@H]1O | 4.3 | 4.8 | 92 | 56 | 0.74 | 2.2 | IC50 [9]: 11 µM
9 | CC(=O)O[C@H]1C(=O)[C@@]2(C)[C@H]([C@H](OC(=O)c3ccccc3)[C@]3(O)C[C@H](OC(=O)[C@H](O)[C@@H](NC(=O)c4ccccc4)c4ccccc4)C(C)=C1C3(C)C)[C@]1(OC(C)=O)CO[C@@H]1C[C@@H]2O [PACLITAXEL] | – | – | – | – | – | – | EC50 (MKN-45): 0.003 µM
10 | CCCCCCCC[C@@H](O)[C@H]1N[C@H](CO)[C@@H](O)[C@@H]1O.Cl | – | – | – | – | – | – | IC50 (Alpha-glucosidase): 28 µM
11 | OCCC[C@@H](O)CCCCCCCCC[C@H]1N[C@H](CO)[C@@H](O)[C@@H]1O | 0 | 0 | – | 86 | 2.3 | 2.5 | –
12 | CCCCCC[C@H](O)[C@H]1N[C@H](CO)[C@@H](O)[C@@H]1O | – | 0 | 0.64 | – | 0.36 | 2.1 | –
13 | OCCC[C@H](O)CCCCCCCC[C@@H](O)[C@@H]1N[C@@H](CO)[C@H](O)[C@H]1O | 1.1 | 4.11 | – | 35 | 3.9 | 0 | –
14 | CCCCCCCCC[C@@H](O)[C@H]1N[C@H](CO)[C@@H](O)[C@@H]1O.Cl | – | – | – | – | – | – | IC50 (Alpha-glucosidase): 21 µM
15 | CCCCCC[C@@H](O)[C@H]1N[C@H](CO)[C@@H](O)[C@@H]1O | – | 0 | 0.2 | – | 0.05 | 2.1 | IC50 [7]: 92 µM; IC50 [11]: 73 µM
16 | CCCCCCCC[C@H](O)[C@H]1N[C@H](CO)[C@@H](O)[C@@H]1O.Cl | – | – | – | – | – | – | IC50 (Alpha-glucosidase): 101 µM
17 | CCCCCCC[C@H](O)[C@H]1N[C@H](CO)[C@@H](O)[C@@H]1O | – | 0 | 0.54 | – | 0.39 | 0.2 | –
18 | CCCCCCCCC[C@H](O)[C@H]1N[C@H](CO)[C@@H](O)[C@@H]1O.Cl | – | – | – | – | – | – | IC50 (Alpha-glucosidase): 53 µM
19 | CCCCCCC[C@@H](O)[C@H]1N[C@H](CO)[C@@H](O)[C@@H]1O | – | 0 | 0.12 | – | 0.015 | 1.7 | IC50 [7]: 91 µM; IC50 [8]: 96 µM; IC50 [11]: 14 µM
20 | OCCC[C@@H](O)CCCCCCCC[C@H](O)C1N[C@H](CO)[C@@H](O)[C@@H]1O (single isomer, unassigned) | 0.43 | 4.6 | 1.8 | 2.5 | 0.046 | 0 | –
21 | OCCC[C@H](O)CCCCCCCCC[C@@H]1N[C@@H](CO)[C@H](O)[C@H]1O | 0 | 0.3 | – | – | 50 | 2.2 | inhibition [12]: 46.5%; IC50 [9]: 1.2 µM
